# Paper PMC5218480 (PLoS ONE, 2017)
# Tested on: MV-4-11 cells
# Experiment: Gene expression microarray analysis (Affymetrix PrimeView) and GSEA
# Assay type: cell-based, human
# Parameters: RFU PODN (11730768_x_at) / Fold change /veh PODN (11730768_x_at) / RFU LINC00158 (11744669_a_at) / Fold change /veh LINC00158 (11744669_a_at) / RFU DUSP10 (11751237_a_at) / Fold change /veh DUSP10 (11751237_a_at) / RFU ID3 (11757404_x_at) / Fold change /veh ID3 (11757404_x_at) / RFU PLEKHG5 (11737974_s_at) / Fold change /veh PLEKHG5 (11737974_s_at) / RFU LRRC4B (11730491_at) / Fold change /veh LRRC4B (11730491_at) / RFU GIMAP4 (11747438_a_at) / Fold change /veh GIMAP4 (11747438_a_at) / RFU KRT8 (11758183_x_at) / Fold change /veh KRT8 (11758183_x_at) / RFU CNN1 (11734310_a_at) / Fold change /veh CNN1 (11734310_a_at) / RFU VPS37D (11726825_at) / Fold change /veh VPS37D (11726825_at) / RFU C10orf10 (11716522_x_at) / Fold change /veh C10orf10 (11716522_x_at) / RFU KIR2DL2 /// KIR2DL4 /// KIR2DL5A /// KIR2DL5B /// KIR2DS1 /// KIR2DS2 /// KIR2DS3 /// KIR2DS4 /// KIR3DL3 /// KIR3DL3 /// KIR3DS1 (11738374_at) / Fold change /veh KIR2DL2 /// KIR2DL4 /// KIR2DL5A /// KIR2DL5B /// KIR2DS1 /// KIR2DS2 /// KIR2DS3 /// KIR2DS4 /// KIR3DL3 /// KIR3DL3 /// KIR3DS1 (11738374_at) / RFU C1QL1 (11718748_at) / Fold change /veh C1QL1 (11718748_at) / RFU TMPRSS4 (11747572_a_at) / Fold change /veh TMPRSS4 (11747572_a_at) / RFU HAMP (11756126_x_at) / Fold change /veh HAMP (11756126_x_at) / RFU RNFT2 (11725882_a_at) / Fold change /veh RNFT2 (11725882_a_at) / RFU NR4A2 (11747474_a_at) / Fold change /veh NR4A2 (11747474_a_at) / RFU ABCC12 (11746883_a_at) / Fold change /veh ABCC12 (11746883_a_at) / RFU TMEM136 (11760407_x_at) / Fold change /veh TMEM136 (11760407_x_at) / RFU CLDN22 /// WWC2 (11732394_at) / Fold change /veh CLDN22 /// WWC2 (11732394_at) / RFU HLA-DPB1 (11760878_x_at) / Fold change /veh HLA-DPB1 (11760878_x_at) / RFU SPINT1 (11716480_a_at) / Fold change /veh SPINT1 (11716480_a_at) / RFU GAP43 (11754022_s_at) / Fold change /veh GAP43 (11754022_s_at) / RFU A4GNT (11735810_at) / Fold change /veh A4GNT (11735810_at) / RFU PRB3 (11715151_x_at) / Fold change /veh PRB3 (11715151_x_at) / RFU TUBB4B (11761932_at) / Fold change /veh TUBB4B (11761932_at) / RFU CAPN14 (11732068_a_at) / Fold change /veh CAPN14 (11732068_a_at) / RFU TMCC2 (11721928_a_at) / Fold change /veh TMCC2 (11721928_a_at) / RFU IRGQ (11745062_a_at) / Fold change /veh IRGQ (11745062_a_at) / RFU FAM174B (11720279_a_at) / Fold change /veh FAM174B (11720279_a_at) / RFU TMPRSS4 (11748680_a_at) / Fold change /veh TMPRSS4 (11748680_a_at) / RFU FAM212B (11763350_a_at) / Fold change /veh FAM212B (11763350_a_at) / RFU PLEKHG5 (11743358_a_at) / Fold change /veh PLEKHG5 (11743358_a_at) / RFU ZSCAN30 (11745921_a_at) / Fold change /veh ZSCAN30 (11745921_a_at) / RFU CMKLR1 (11741424_a_at) / Fold change /veh CMKLR1 (11741424_a_at) / RFU LOC101060620 /// MAPK8IP1 (11723275_at) / Fold change /veh LOC101060620 /// MAPK8IP1 (11723275_at) / RFU SPTSSB (11747773_x_at) / Fold change /veh SPTSSB (11747773_x_at) / RFU PRSS12 (11739890_at) / Fold change /veh PRSS12 (11739890_at) / RFU BIN1 (11741810_x_at) / Fold change /veh BIN1 (11741810_x_at) / RFU WNT11 (11732464_a_at) / Fold change /veh WNT11 (11732464_a_at) / RFU C10orf10 (11716521_a_at) / Fold change /veh C10orf10 (11716521_a_at) / RFU C5orf56 (11738089_at) / Fold change /veh C5orf56 (11738089_at) / RFU CYB561 (11721691_x_at) / Fold change /veh CYB561 (11721691_x_at) / RFU ANKRD19P (11752326_a_at) / Fold change /veh ANKRD19P (11752326_a_at) / RFU OR2T12 /// OR2T33 /// OR2T8 (11738714_s_at) / Fold change /veh OR2T12 /// OR2T33 /// OR2T8 (11738714_s_at) / RFU VCAN (11748164_a_at) / Fold change /veh VCAN (11748164_a_at) / RFU JSRP1 (11732532_at) / Fold change /veh JSRP1 (11732532_at) / RFU KRTAP10-11 (11738290_x_at) / Fold change /veh KRTAP10-11 (11738290_x_at) / RFU MYO3A (11730013_a_at) / Fold change /veh MYO3A (11730013_a_at) / RFU EBF3 (11725865_a_at) / Fold change /veh EBF3 (11725865_a_at) / RFU CAMK2N1 (11719241_x_at) / Fold change /veh CAMK2N1 (11719241_x_at) / RFU C5orf56 (11738088_a_at) / Fold change /veh C5orf56 (11738088_a_at) / RFU OLFML3 (11715873_a_at) / Fold change /veh OLFML3 (11715873_a_at) / RFU LOC100653217 /// NTM (11731650_a_at) / Fold change /veh LOC100653217 /// NTM (11731650_a_at) / RFU MAPK11 (11762145_a_at) / Fold change /veh MAPK11 (11762145_a_at) / RFU FIZ1 (11724087_x_at) / Fold change /veh FIZ1 (11724087_x_at) / RFU OASL (11726364_x_at) / Fold change /veh OASL (11726364_x_at) / RFU SOX15 (11748057_x_at) / Fold change /veh SOX15 (11748057_x_at) / RFU CD79A (11719716_a_at) / Fold change /veh CD79A (11719716_a_at) / RFU HIST1H1D (11736915_at) / Fold change /veh HIST1H1D (11736915_at) / RFU CASKIN2 (11723855_a_at) / Fold change /veh CASKIN2 (11723855_a_at) / RFU LOC730098 (11760151_x_at) / Fold change /veh LOC730098 (11760151_x_at) / RFU OR4N2 (11742367_at) / Fold change /veh OR4N2 (11742367_at) / RFU PRRT2 (11749266_a_at) / Fold change /veh PRRT2 (11749266_a_at) / RFU SNX32 (11753110_a_at) / Fold change /veh SNX32 (11753110_a_at) / RFU CDHR5 (11726645_a_at) / Fold change /veh CDHR5 (11726645_a_at) / RFU RCAN1 (11760418_a_at) / Fold change /veh RCAN1 (11760418_a_at) / RFU FAM167A (11723789_a_at) / Fold change /veh FAM167A (11723789_a_at) / RFU FAM26E (11764081_at) / Fold change /veh FAM26E (11764081_at) / RFU ISYNA1 (11749810_s_at) / Fold change /veh ISYNA1 (11749810_s_at) / RFU ACY1 (11761880_at) / Fold change /veh ACY1 (11761880_at) / RFU 11764098_at / Fold change /veh 11764098_at / RFU SAMD14 (11745864_x_at) / Fold change /veh SAMD14 (11745864_x_at) / RFU NPB (11741838_a_at) / Fold change /veh NPB (11741838_a_at) / RFU TMPRSS6 (11731388_a_at) / Fold change /veh TMPRSS6 (11731388_a_at) / RFU KRTAP10-2 (11738614_at) / Fold change /veh KRTAP10-2 (11738614_at) / RFU ARHGAP8 /// PRR5-ARHGAP8 (11727945_x_at) / Fold change /veh ARHGAP8 /// PRR5-ARHGAP8 (11727945_x_at) / RFU KRTAP5-7 /// NADSYN1 (11734609_at) / Fold change /veh KRTAP5-7 /// NADSYN1 (11734609_at) / RFU RASL12 (11751679_a_at) / Fold change /veh RASL12 (11751679_a_at) / RFU CDKN2B (11736163_a_at) / Fold change /veh CDKN2B (11736163_a_at) / RFU PRF1 (11729649_at) / Fold change /veh PRF1 (11729649_at) / RFU, ZNF638 /// ZNF638-IT1 / Fold change vs veh, ZNF638 /// ZNF638-IT1 / RFU, PANK3 / Fold change vs veh, PANK3 / RFU, SH3YL1 / Fold change vs veh, SH3YL1 / RFU, ZEB2 / Fold change vs veh, ZEB2 / RFU, NRIP1 / Fold change vs veh, NRIP1 / RFU, PTTG1IP / Fold change vs veh, PTTG1IP / RFU, CAPN2 / Fold change vs veh, CAPN2 / RFU, MED14 / Fold change vs veh, MED14 / RFU, SNORA58 / Fold change vs veh, SNORA58 / RFU, C1orf63 / Fold change vs veh, C1orf63 / RFU, LRRFIP1 / Fold change vs veh, LRRFIP1 / RFU, NDUFAF7 / Fold change vs veh, NDUFAF7 / RFU, SLC12A2 / Fold change vs veh, SLC12A2 / RFU, IBTK / Fold change vs veh, IBTK / RFU, ESF1 / Fold change vs veh, ESF1 / Fold change vs veh, TMEM50B / RFU, TAOK1 / Fold change vs veh, TAOK1 / RFU, ACBD3 / Fold change vs veh, ACBD3 / RFU, TMA16 / Fold change vs veh, TMA16 / RFU, RWDD3 / Fold change vs veh, RWDD3 / RFU, BCAT1 / Fold change vs veh, BCAT1 / RFU, EDEM3 / Fold change vs veh, EDEM3 / RFU, TMEM33 / Fold change vs veh, TMEM33 / RFU, WDR75 / Fold change vs veh, WDR75 / RFU, AHCTF1 / Fold change vs veh, AHCTF1 / RFU, TFRC / Fold change vs veh, TFRC / RFU, ZDHHC17 / Fold change vs veh, ZDHHC17 / RFU, NOM1 / Fold change vs veh, NOM1 / RFU, ARL8B / Fold change vs veh, ARL8B / RFU, ZBTB11 / Fold change vs veh, ZBTB11 / RFU, TAMM41 / Fold change vs veh, TAMM41 / RFU, KIAA1704 /// LOC100996395 / Fold change vs veh, KIAA1704 /// LOC100996395 / RFU, ING1 / Fold change vs veh, ING1 / RFU, TRMT61B / Fold change vs veh, TRMT61B / RFU, FUBP3 / Fold change vs veh, FUBP3 / RFU, TP53 / Fold change vs veh, TP53 / RFU, TNKS2 / Fold change vs veh, TNKS2 / RFU, ZFP14 / Fold change vs veh, ZFP14 / RFU, ACTR2 / Fold change vs veh, ACTR2 / RFU, PPP3R1 / Fold change vs veh, PPP3R1 / RFU, PIK3R1 / Fold change vs veh, PIK3R1 / RFU, HNRNPA1 / Fold change vs veh, HNRNPA1 / RFU, RNF170 / Fold change vs veh, RNF170 / RFU, ZNF28 / Fold change vs veh, ZNF28 / RFU, RNGTT / Fold change vs veh, RNGTT / RFU, OGT / Fold change vs veh, OGT / RFU, BRD1 / Fold change vs veh, BRD1 / RFU, MARS / Fold change vs veh, MARS / RFU, ZNF655 / Fold change vs veh, ZNF655 / RFU, FAHD1 / Fold change vs veh, FAHD1 / RFU, BDP1 / Fold change vs veh, BDP1 / RFU, LRRCC1 / Fold change vs veh, LRRCC1 / RFU, ARID1A / Fold change vs veh, ARID1A / RFU, ZNF146 / Fold change vs veh, ZNF146 / RFU, ZNF330 / Fold change vs veh, ZNF330 / RFU, GPN3 / Fold change vs veh, GPN3 / RFU, C9orf123 / Fold change vs veh, C9orf123 / RFU, N4BP2L2 / Fold change vs veh, N4BP2L2 / RFU, ARFIP1 / Fold change vs veh, ARFIP1 / RFU, FAM179B / Fold change vs veh, FAM179B / RFU, BCL10 / Fold change vs veh, BCL10 / RFU, UHRF1BP1L / Fold change vs veh, UHRF1BP1L / RFU, BET1 / Fold change vs veh, BET1 / RFU, CNOT2 / Fold change vs veh, CNOT2 / RFU, ZNF268 / Fold change vs veh, ZNF268 / Fold change vs veh, ZNF507 / RFU, DGCR2 / Fold change vs veh, DGCR2 / RFU, WDSUB1 / Fold change vs veh, WDSUB1 / Fold change vs veh, HSP90B1 /// MIR3652 / RFU, ADSS / Fold change vs veh, ADSS / RFU, GK / Fold change vs veh, GK / RFU, ZNF148 / Fold change vs veh, ZNF148 / RFU, TAF9 / Fold change vs veh, TAF9 / RFU, SLC1A5 / Fold change vs veh, SLC1A5 / RFU, SLMO2 / Fold change vs veh, SLMO2 / RFU, ABCC4 / Fold change vs veh, ABCC4 / RFU, LOC101060439 /// RAP1B / Fold change vs veh, LOC101060439 /// RAP1B / RFU, RFX7 / Fold change vs veh, RFX7 / RFU, GTPBP10 / Fold change vs veh, GTPBP10 / RFU, CNEP1R1 / Fold change vs veh, CNEP1R1 / RFU, BIVM-ERCC5 /// ERCC5 / Fold change vs veh, BIVM-ERCC5 /// ERCC5 / RFU, ILF3 / Fold change vs veh, ILF3 / RFU 11762660_at / Fold change /veh 11762660_at / RFU VCAN (11757783_s_at) / Fold change /veh VCAN (11757783_s_at) / RFU DDX43 (11728927_at) / Fold change /veh DDX43 (11728927_at) / RFU KRT8 (11758188_x_at) / Fold change /veh KRT8 (11758188_x_at) / RFU NKD1 (11759106_at) / Fold change /veh NKD1 (11759106_at) / RFU SRD5A1 (11742802_a_at) / Fold change /veh SRD5A1 (11742802_a_at) / RFU TPSAB1 /// TPSB2 (11721975_s_at) / Fold change /veh TPSAB1 /// TPSB2 (11721975_s_at) / RFU GSTM3 (11746129_a_at) / Fold change /veh GSTM3 (11746129_a_at) / RFU IL23R (11737362_x_at) / Fold change /veh IL23R (11737362_x_at) / RFU TMEM51 (11727254_a_at) / Fold change /veh TMEM51 (11727254_a_at) / RFU PIWIL2 (11732686_x_at) / Fold change /veh PIWIL2 (11732686_x_at) / RFU ORM1 (11744905_x_at) / Fold change /veh ORM1 (11744905_x_at) / RFU CCDC152 (11743942_at) / Fold change /veh CCDC152 (11743942_at) / RFU ECM1 (11717891_a_at) / Fold change /veh ECM1 (11717891_a_at) / RFU IL23R (11748794_a_at) / Fold change /veh IL23R (11748794_a_at) / RFU TNFAIP8L3 (11732012_x_at) / Fold change /veh TNFAIP8L3 (11732012_x_at) / RFU MBOAT4 (11741988_at) / Fold change /veh MBOAT4 (11741988_at) / RFU 11764193_at / Fold change /veh 11764193_at / RFU TMEM53 (11763286_at) / Fold change /veh TMEM53 (11763286_at) / RFU MAGEB2 (11727129_at) / Fold change /veh MAGEB2 (11727129_at) / RFU TMEM200A (11744735_a_at) / Fold change /veh TMEM200A (11744735_a_at) / RFU CCDC152 (11751479_a_at) / Fold change /veh CCDC152 (11751479_a_at) / RFU FAM211A (11726209_a_at) / Fold change /veh FAM211A (11726209_a_at) / RFU RGS16 (11746705_a_at) / Fold change /veh RGS16 (11746705_a_at) / RFU VCAN (11755009_s_at) / Fold change /veh VCAN (11755009_s_at) / RFU RHOB (11743442_s_at) / Fold change /veh RHOB (11743442_s_at) / RFU RGS16 (11720943_a_at) / Fold change /veh RGS16 (11720943_a_at) / RFU RGS16 (11720944_at) / Fold change /veh RGS16 (11720944_at) / RFU, VPS4B / Fold change vs veh, VPS4B / RFU, CREB1 / Fold change vs veh, CREB1 / RFU, DNAJC13 / Fold change vs veh, DNAJC13 / RFU, GNAQ / Fold change vs veh, GNAQ / RFU, CDK5R1 / Fold change vs veh, CDK5R1 / RFU, ZRANB3 / Fold change vs veh, ZRANB3 / RFU, CUL4A / Fold change vs veh, CUL4A / RFU, CCNY / Fold change vs veh, CCNY / RFU, UFL1 / Fold change vs veh, UFL1 / RFU, COG3 / Fold change vs veh, COG3 / RFU, DIAPH2 / Fold change vs veh, DIAPH2 / RFU, SKA2 / Fold change vs veh, SKA2 / RFU, AFF3 / Fold change vs veh, AFF3 / RFU, LMF1 / Fold change vs veh, LMF1 / RFU, IPO11 / Fold change vs veh, IPO11 / RFU, DFFB / Fold change vs veh, DFFB / RFU, FOXP1 / Fold change vs veh, FOXP1 / RFU, CARD8 / Fold change vs veh, CARD8 / RFU, STRN3 / Fold change vs veh, STRN3 / RFU, ADK / Fold change vs veh, ADK / RFU, RASSF2 / Fold change vs veh, RASSF2 / RFU, WIPF1 / Fold change vs veh, WIPF1 / RFU, LARP1B / Fold change vs veh, LARP1B / RFU, RASA1 / Fold change vs veh, RASA1 / RFU, RB1 / Fold change vs veh, RB1 / RFU, PPFIA1 / Fold change vs veh, PPFIA1 / RFU, MAT2A / Fold change vs veh, MAT2A / RFU, CCT5 / Fold change vs veh, CCT5 / RFU, WDR92 / Fold change vs veh, WDR92 / RFU, CUX1 / Fold change vs veh, CUX1 / RFU, TTC7A / Fold change vs veh, TTC7A / RFU, TMEM135 / Fold change vs veh, TMEM135 / RFU, DEPTOR / Fold change vs veh, DEPTOR / RFU, CPM / Fold change vs veh, CPM / RFU, DNAJB6 / Fold change vs veh, DNAJB6 / RFU, CACNA2D3 / Fold change vs veh, CACNA2D3 / RFU, DTX4 / Fold change vs veh, DTX4 / RFU, TFCP2 / Fold change vs veh, TFCP2 / RFU, GMCL1 /// GMCL1P1 / Fold change vs veh, GMCL1 /// GMCL1P1 / RFU, AEBP2 / Fold change vs veh, AEBP2 / RFU, SNHG1 /// SNORD22 /// SNORD25 /// SNORD26 /// SNORD27 /// SNORD28 /// SNORD29 /// SNORD31 / Fold change vs veh, SNHG1 /// SNORD22 /// SNORD25 /// SNORD26 /// SNORD27 /// SNORD28 /// SNORD29 /// SNORD31 / Fold change (Aza/veh), C12orf56 (ProbeSet 11735607_a_at) / Fold change (ACY-1035/veh), C12orf56 (ProbeSet 11735607_a_at) / Fold change (Aza/veh), FGFR1OP (ProbeSet 11751329_s_at) / Fold change (ACY-1035/veh), FGFR1OP (ProbeSet 11751329_s_at) / Fold change (Aza/veh), VPS36 (ProbeSet 11739960_a_at) / Fold change (ACY-1035/veh), VPS36 (ProbeSet 11739960_a_at) / RFU SYPL1 (11715823_x_at) / Fold change /veh SYPL1 (11715823_x_at) / RFU IGFBP7 (11715501_s_at) / Fold change /veh IGFBP7 (11715501_s_at) / RFU REEP3 (11722064_at) / Fold change /veh REEP3 (11722064_at) / RFU IGLL1 (11728026_x_at) / Fold change /veh IGLL1 (11728026_x_at): dose or concentration left out as unconfirmed
# Settings: MV-4-11 cells, 48 hours
smiles,measurement,value
Nc1ccc(-c2cccs2)cc1NC(=O)c1ccc2c(c1)cc(C1CC1)n2CCN1CCOCC1 [ACY-1035],RFU HIST1H1D (11736915_at),13.65 RFU
